Measurements reported in patent US20050095278A1, “Use of nitroglycerin to relieve nocturnal muscle cramps” (priority 2003, published 2005).

System: patients with nocturnal leg muscle cramps
Experiment: Topically applied nitroglycerin (transdermal patch) in ten patients with nocturnal leg muscle cramps
Format: in vivo, human
Description: The following Examples show the successful use of topically applied nitroglycerin in treating ten patients with nocturnal leg muscle cramps.

`O=[N+]([O-])OCC(CO[N+](=O)[O-])O[N+](=O)[O-]` [nitroglycerin] was tested, and the “relief in the frequency and severity of nocturnal muscle cramping (summary of the ten patients)” value (small amounts of nitroglycerin, even once daily) was “moderate to significant relief”, the “relieving pain and cramping associated with nocturnal muscle cramps (observation)” value (topically applied by a transdermal patch to the lower extremity) was “effective in relieving pain and cramping” and the “relief of pain and cramping associated with muscle cramps (early studies)” value (transdermal delivery at a rate of about 0.1 mg/hr) was “sufficient for relief of pain and cramping”.
